Results published in the supplement of paper PMC11451515.

Test system: NOMO1
Experiment: cell viability relative to DMSO control; higher = less cytotoxic
Details: 48 h
Outline: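 Three leukemia lines were tested: NOMO1 and SEM at 500 cells/well and P12-Ichikawa at 1000 cells/well. Each was adapted for at least four passages in each medium and seeded in 5 μl in 1536-well plates, and library compounds in DMSO were pin-dosed from 47 μM to 0.79 nM in 11 threefold steps. After 48 h at 37°C, CellTiter-Glo One luminescence was read. Viability is a percentage relative to DMSO wells on each plate, with cell-free wells as background.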

[1] = HPLM + 10% dialyzed FBS, 0.000781 µM
[2] = HPLM + 10% dialyzed FBS, 0.00234 µM
[3] = HPLM + 10% dialyzed FBS, 0.00702 µM
[4] = HPLM + 10% dialyzed FBS, 0.0211 µM
[5] = HPLM + 10% dialyzed FBS, 0.0632 µM
[6] = HPLM + 10% dialyzed FBS, 0.19 µM
[7] = HPLM + 10% dialyzed FBS, 0.569 µM
[8] = HPLM + 10% dialyzed FBS, 1.71 µM
[9] = HPLM + 10% dialyzed FBS, 5.12 µM
[10] = HPLM + 10% dialyzed FBS, 15.4 µM
[11] = HPLM + 10% dialyzed FBS, 46.1 µM
[12] = RPMI 5 mM glucose + 10% FBS, 0.000781 µM
[13] = RPMI 5 mM glucose + 10% FBS, 0.00234 µM
[14] = RPMI 5 mM glucose + 10% FBS, 0.00702 µM
[15] = RPMI 5 mM glucose + 10% FBS, 0.0211 µM
[16] = RPMI 5 mM glucose + 10% FBS, 0.0632 µM
[17] = RPMI 5 mM glucose + 10% FBS, 0.19 µM
[18] = RPMI 5 mM glucose + 10% FBS, 0.569 µM
[19] = RPMI 5 mM glucose + 10% FBS, 1.71 µM
[20] = RPMI 5 mM glucose + 10% FBS, 5.12 µM
[21] = RPMI 5 mM glucose + 10% FBS, 15.4 µM
[22] = RPMI 5 mM glucose + 10% FBS, 46.1 µM
[23] = RPMI 5 mM glucose + 10% dialyzed FBS, 0.000781 µM
[24] = RPMI 5 mM glucose + 10% dialyzed FBS, 0.00234 µM
[25] = RPMI 5 mM glucose + 10% dialyzed FBS, 0.00702 µM
[26] = RPMI 5 mM glucose + 10% dialyzed FBS, 0.0211 µM
[27] = RPMI 5 mM glucose + 10% dialyzed FBS, 0.0632 µM
[28] = RPMI 5 mM glucose + 10% dialyzed FBS, 0.19 µM
[29] = RPMI 5 mM glucose + 10% dialyzed FBS, 0.569 µM
[30] = RPMI 5 mM glucose + 10% dialyzed FBS, 1.71 µM
[31] = RPMI 5 mM glucose + 10% dialyzed FBS, 5.12 µM
[32] = RPMI 5 mM glucose + 10% dialyzed FBS, 15.4 µM
[33] = RPMI 5 mM glucose + 10% dialyzed FBS, 46.1 µM

SMILES	cell viability [1] [%]	cell viability [2] [%]	cell viability [3] [%]	cell viability [4] [%]	cell viability [5] [%]	cell viability [6] [%]	cell viability [7] [%]	cell viability [8] [%]	cell viability [9] [%]	cell viability [10] [%]	cell viability [11] [%]	cell viability [12] [%]	cell viability [13] [%]	cell viability [14] [%]	cell viability [15] [%]	cell viability [16] [%]	cell viability [17] [%]	cell viability [18] [%]	cell viability [19] [%]	cell viability [20] [%]	cell viability [21] [%]	cell viability [22] [%]	cell viability [23] [%]	cell viability [24] [%]	cell viability [25] [%]	cell viability [26] [%]	cell viability [27] [%]	cell viability [28] [%]	cell viability [29] [%]	cell viability [30] [%]	cell viability [31] [%]	cell viability [32] [%]	cell viability [33] [%]
C[C@H](NC(=O)Cc1cc(F)cc(F)c1)C(=O)N[C@H](C(=O)OC(C)(C)C)c1ccccc1	98.4	110	98.2	101	111	91.2	101	73.8	91.6	91.3	80.3	88.9	84.9	92.2	80.8	92	87.4	76.1	79.3	76.4	81.9	75.4	95.3	85.3	94	85.2	101	92.9	91.4	92.7	92.6	79.5	82.8
COCCn1c2c([n+](Cc3cnccn3)c1C)C(=O)c1ccccc1C2=O	–	–	–	–	–	–	–	–	–	–	–	127	123	113	112	104	35.3	7.45	6.58	6.62	4.16	1.59	–	–	–	–	–	–	–	–	–	–	–
COc1ccc(F)c(F)c1C(=O)c1cnc(NC2CCN([S+](C)(=O)[O-])CC2)nc1N	106	135	123	117	119	124	118	93.6	45.6	7.59	3.32	104	118	103	102	109	109	100	98.9	46.3	15.1	3.38	105	101	102	106	107	102	83.8	90	54.1	15	2.57
Cc1cn2cc(C(=O)N(C)CCO)cc(N[C@@H]3CCOc4cccc(C)c43)c2n1	93.8	105	112	118	122	115	110	131	119	108	130	96.2	108	107	104	105	106	113	111	122	117	129	105	104	114	130	114	110	122	117	115	128	129
CC(=O)OC[C@@H]1O[C@H]([C@H](OC(C)=O)[C@@H]1OC(C)=O)N2\C=C/C(=O)NC2=O	–	–	–	–	–	–	–	–	–	–	–	107	117	115	117	125	121	102	111	105	82.9	22.6	–	–	–	–	–	–	–	–	–	–	–
Cc1ccc(Nc2cc(-c3cccc(N4C(=O)c5ccccc5C4=O)c3)ncn2)cc1N[S+](C)(=O)[O-]	107	113	156	123	127	149	128	140	153	132	107	–	–	–	–	–	–	–	–	–	–	–	–	–	–	–	–	–	–	–	–	–	–
CNC(=O)c1ccc2c(c1)NC(=O)/C2=C(\Nc1cccc(CN(C)C)c1)c1ccccc1	85.5	109	103	100	99.9	106	95	91.9	45.9	63.4	0.559	93.7	84.5	93.6	94.9	93.1	93.3	95.1	87.2	80	66.5	1.26	74.6	91.7	90.5	90.7	80	98.9	90.3	89.1	75.9	57.7	1.81
c1cc(-c2cnn3cc(-c4ccc(OCCN5CCCCC5)cc4)cnc23)ccn1	95.4	83.7	101	87.5	83.1	88.8	88.6	67.2	76.1	72.8	30.5	83.1	88.8	87.4	81.2	83.9	83.4	80.6	80.9	80.4	85.9	80.2	80.1	84.5	82.6	86.9	89.5	86.5	79.6	84	78.3	80.9	74
C[C@]1(O)CC(C1)C2=NC(=C3[N]2C=CN=C3N)C4=CC5=C(C=C4)C=CC(=N5)C6=CC=CC=C6 (stereo unspecified)	95.7	83.7	104	89.9	107	72.2	75.1	53.8	31.8	3.24	4.22	86	88	92.8	85.6	87.4	85.3	83.5	64.3	33.7	3.26	2.26	86.2	73.9	83.8	91.6	90.5	65.8	82.5	53.3	37.7	4.27	1.68
